Ends that are not written are not given here. A value given as a limit tells only on which side of the number the result lay.

The text below walks through data of patent US20060034856A1, “Epha2 antigen t epitopes” (priority 2002, published 2006).

The target of assay [1] is T1, HLA-A*0201 (Homo sapiens, UniProt P04439, D140Y/D185E/D98H/E176V/E277Q/G131W/G231S/I119V/I121R/I166T/I218V/L300P/L318F/N151K/N90K/P208A/P217A/Q86G/Q94H/R138H/R169H/T345S). To be noted: ratio of peptide to reference peptide (HIVpol 589) concentration inducing 20% of fluorescence of 100 μM reference; T2 cells; lower RA = stronger binding; mean of at least three experiments. The protocol:
The immunogenicity of these peptides was evaluated by measuring their affinity for HLA-A*0201. This is defined by two parameters: the relative affinity (RA) which reflects the ability of the peptides to bind to HLA-A*0201, and the rate of dissociation of the HLA-A*0201/peptide complexes (DC50), which reflects their stability.
Human T2 cells (Firat et al., Eur. J. Immunol., 29, 3112, 1999) (3×10^5 cells/ml), which are deficient in TAP transporters, are incubated at 37° C. for 16 hours with various concentrations (100 μM, 10 μM, 1 μM, 0.1 μM) of each test peptide, in serum-free RPMI 1640 medium supplemented with 100 ng/ml of human β2-microglobulin. Next, they are washed twice and labeled with the monoclonal antibody BB7.2 (Parham et al., Hum. Immunol., 3, 4, 277-299, 1981) which is specific for the HLA-A*0201 molecule, and then with a goat anti-mouse Ig antibody coupled to fluorescein isothiocyanate (FITC).
These cells are then analyzed by flow cytometry. […] The relative affinity (RA) is defined as the ratio of the concentration of each peptide that induces 20% of the fluorescence obtained with 100 μM of the reference peptide, to the concentration of the reference peptide that induces 20% of the fluorescence obtained with 100 μM of said reference peptide. […] The mean RA for each peptide is determined from at least three independent experiments.

For assay [2], the target named is T1, HLA-A*0201. Kind of assay: Stability of HLA-A*0201/peptide complexes (DC50) on T2 cells. Also on record: endogenous in cells; host or cells: human T2 cells (TAP-deficient). It is filed as binding. Particulars: time for loss of 50% of HLA-A*0201/peptide complexes stabilized at t=0, 100 μM peptide, 37° C. The protocol: The immunogenicity of these peptides was evaluated by measuring their affinity for HLA-A*0201. This is defined by two parameters: the relative affinity (RA) which reflects the ability of the peptides to bind to HLA-A*0201, and the rate of dissociation of the HLA-A*0201/peptide complexes (DC50), which reflects their stability. The high-affinity peptides (RA<5 and DC50>2 hrs) are potentially immunogenic, unlike the low-affinity peptides (RA>5 and DC50<2 hrs).
T2 cells (10^6/ml) are incubated overnight at 37° C. with 100 μM of each test peptide, in serum-free RPMI 1640 medium supplemented with 100 ng/ml of human β2-microglobulin. Next, they are washed four times in order to remove the free peptides, incubated with BREFELDIN A (Sigma; 10 μg/ml) for one hour in order to prevent the expression at their surface of newly synthesized HLA-A*0201 molecules, washed, and incubated at 37° C. for 0, 2, 4, 6 or 8 hours in the presence of BREFELDIN A (0.5 μg/ml). For each incubation time, the cells are then labeled, as indicated above, with the BB7.2 antibody and analyzed by flow cytometry in order to evaluate the amount of peptide/HLA-A*0201 complex present at their surface. This amount is evaluated by means of the formula: (mean fluorescence of the T2 cells preincubated with the peptide−mean fluorescence of the T2 cells treated under similar conditions in the absence of peptide). The DC50 (dissociation complex: DC) is defined as being the time (in hours) required for the loss of 50% of the HLA-A*0201/peptide complexes which are stabilized at t=0.

The target of assay [3] is T2, HLA-A*0201 molecule on human T2 cells (human).
T2 construct: MHC class I molecule on T2 cells
The experiment in a line: T2 cell HLA-A*0201 stabilisation, flow cytometry with BB7.2; peptide concentration giving 20% of reference fluorescence, relative to HIVpol 589.

Consider YMPIYMYSV [p61Y, YMPIYMYSV], for which the “RA (relative affinity)” value on HLA-A*0201 [1] was found to be 1.5. VLAGVGFFI [p550, VLAGVGFFI]: on HLA-A*0201 [1], the “RA (relative affinity)” value is listed as 1. Besides, the DC50 on HLA-A*0201 [2] lay within 4 to 6 h. As to IMNDMPIYM [p58, IMNDMPIYM], the “RA (relative affinity)” value on HLA-A*0201 [1] is 1. The same molecule showed a DC50 on HLA-A*0201 [2] of 4 h. Turning to DMPIYMYSV [p61], in the assay with HLA-A*0201 [1], the “RA (relative affinity)” value is on record as greater than 10. As for TLADFDPRV [p883, TLADFDPRV], the DC50 at HLA-A*0201 [2] was in the range of 2 to 4 h. Consider VLLLVLAGV [p546, VLLLVLAGV], for which the “RA (relative affinity)” value at HLA-A*0201 [1] is reported as 1.4. For the same molecule, the DC50 at HLA-A*0201 [2] lay in the range of 4 to 6 h.

B1: p883 peptide of EphA2 (peptide)
peptide: TLADFDPRV
notes: Synthetic 9-mer fragment of the human EphA2 antigen
For the molecule B1, the “RA (relative affinity)” value in assay [3] was 2.2 ratio to reference peptide.

B2: p550 peptide of EphA2 (peptide)
peptide: VLAGVGFFI
notes: as for B1
Consider B2, for which the “RA (relative affinity)” value in assay [3] was 1 ratio to reference peptide.

B3: p58 peptide of EphA2 (peptide)
peptide: IMNDMPIYM
notes: Synthetic 9-mer fragment of the human EphA2 antigen (SYNT:EM), purity >85%
On to B3, for which, in assay [3], the “RA (relative affinity)” value is 1 ratio to reference peptide.

B4: p61Y variant peptide (peptide)
peptide: YMPIYMYSV
notes: Variant of p61 in which the N-terminal aspartic acid is replaced by tyrosine
Consider B4, for which the “RA (relative affinity)” value in assay [3] was 1.5 ratio to reference peptide.

B5: p546 peptide of EphA2 (peptide)
peptide: VLLLVLAGV
notes: as for B1
Regarding B5, the “RA (relative affinity)” value in assay [3] is 1.4 ratio to reference peptide.
